Measured values taken from US9932637B2, “Genetic polymorphisms associated with cardiovascular disorders and drug response, methods of detection and uses thereof” (CELERA CORPORATION, priority 2003, dated 2018).

System: patients with prior myocardial infarction (CARE study)
Assay: CARE: association of SNPs with pravastatin treatment in cardiovascular events prevention (logistic regression, odds ratio pravastatin vs placebo by genotype; Table 8)
Type: in vivo, human
Settings: for Any Report of Stroke Prior to or During CARE, n/total (%) / Cardiovascular Mortality, n/total (%) / Fatal Atherosclerotic Cardiovascular Disease, n/total (%) / Fatal Coronary Heart Disease, n/total (%) / Fatal/Non-fatal Atherosclerotic CV Disease, n/total (%) / Total Coronary Heart Disease Events, n/total (%) / Total Mortality, n/total (%) / Hosp. for Cardiovascular Disease, n/total (%) / Total Cardiovascular Disease Events, n/total (%) / Fatal/Non-fatal MI (def & prob), n/total (%): Prava arm; for Odds ratio pravastatin vs placebo: All Patients
Source text: In order to identify genetic markers associated with acute coronary events (e.g. MI, stroke, unstable angina, congestive heart failure, etc.) or response to statin treatment for the prevention of coronary events, samples from the Cholesterol and Recurrent Events (CARE) study (a randomized multicentral double-blinded trial on secondary prevention of acute coronary events with pravastatin) (Sacks et al., 1991, Am. J. Cardiol. 68: 1436-1446) were genotyped. A well-documented myocardial infarction (MI) was one of the enrollment criteria for entry into the CARE study. Patients were enrolled in the CARE trial from 80 participating study centers. […] Patients were randomized to receive either 40 mg of pravastatin once daily or a matching placebo. The primary endpoint of the trial was death from coronary heart disease and the median duration of follow-up was 5.0 years (range, 4.0 to 6.2 years). […] Secondary endpoints of other related cardiovascular or metabolic disease events, and changes in clinical variables were also recorded in pravastatin-treated and placebo groups. All individuals included in the study had signed a written informed consent form and the study protocol was approved by the respective Institutional Review Boards (IRBs).
For genotyping SNPs in CARE patient samples, DNA was extracted from blood samples using conventional DNA extraction methods such as the QIA-amp kit from Qiagen. Genotypes were obtained on an ABI PRISM® 7900HT Sequence Detection PCR system (Applied Biosystems, Foster City, Calif.) by kinetic allele-specific PCR, similar to the method described by Germer et al. (Germer S., Holland M. J., Higuchi R. 2000, Genome Res. 10: 258-266).
Statistical analysis for association of SNPs with pravastatin treatment in cardiovascular events prevention (Table 8) was carried out using an overall logistic regression model that included an intercept, a parameter for the effect of a genotype containing two rare alleles versus a genotype containing no rare alleles, a parameter for the effect of a genotype containing one rare allele versus a genotype containing no rare alleles, a parameter for the effect of use of pravastatin versus the use of placebo, and parameters for the interaction effects between SNP genotypes and pravastatin use. The test of the overall model is a chi-square test with two degrees of freedom for analyses containing all three genotypes, and one degree of freedom for analyses containing two genotypes.
Effect sizes were estimated through odds ratios (pravastatin group versus placebo) for carriers of each genotype (groups of 0, 1, and 2 minor allele carriers). The effect was considered to be significant if p-value for testing whether any of the interactions between SNP genotypes and pravastatin use were <0.05. […] Odds ratios less than one indicate that the specific SNP allele has a protective effect and odds ratios greater than one indicate that the specific SNP allele has an adverse effect.

[1] = TGFB1 hCV8708473, All Patients, 1 Rare Allele
[2] = TGFB1 hCV8708473, All Patients, 2 Rare Alleles
[3] = TGFB1 hCV22272997, All Patients, 0 Rare Alleles
[4] = TGFB1 hCV22272997, All Patients, 1 Rare Allele
[5] = TGFB1 hCV22272997, All Patients, 2 Rare Alleles
[6] = TLR5 hCV15871020, All Patients, 0 Rare Alleles
[7] = TLR5 hCV15871020, All Patients, 1 Rare Allele
[8] = TLR5 hCV15871020, All Patients, 2 Rare Alleles
[9] = TLR6 hCV1180648, All Patients, 0 Rare Alleles
[10] = TLR6 hCV1180648, All Patients, 1 Rare Allele
[11] = TLR6 hCV1180648, All Patients, 2 Rare Alleles
[12] = TNF hCV7514879, All Patients, 0 Rare Alleles
[13] = TNF hCV7514879, All Patients, 1 Rare Allele
[14] = TNF hCV7514879, All Patients, 2 Rare Alleles
[15] = VEGF hCV791476, All Patients, 0 Rare Alleles
[16] = VEGF hCV791476, All Patients, 1 Rare Allele
[17] = VEGF hCV791476, All Patients, 2 Rare Alleles

CC[C@H](C)C(=O)O[C@H]1C[C@H](O)C=C2C=C[C@H](C)[C@H](CC[C@@H](O)C[C@@H](O)CC(=O)O)[C@H]21 [pravastatin]
Any Report of Stroke Prior to or During CARE, n/total (%) [1]: (3.8%)
Cardiovascular Mortality, n/total (%) [1]: (1.7%)
Fatal Atherosclerotic Cardiovascular Disease, n/total (%) [1]: (1.7%)
Fatal Coronary Heart Disease, n/total (%) [1]: (1.2%)
Fatal/Non-fatal Atherosclerotic CV Disease, n/total (%) [1]: (27.9%)
Total Coronary Heart Disease Events, n/total (%) [1]: (23.9%)
Total Mortality, n/total (%) [1]: (3.8%)
Any Report of Stroke Prior to or During CARE, n/total (%) [2]: (3.7%)
Cardiovascular Mortality, n/total (%) [2]: (3.1%)
Fatal Atherosclerotic Cardiovascular Disease, n/total (%) [2]: (3.1%)
Fatal Coronary Heart Disease, n/total (%) [2]: (2.5%)
Fatal/Non-fatal Atherosclerotic CV Disease, n/total (%) [2]: (38.3%)
Total Coronary Heart Disease Events, n/total (%) [2]: (37.0%)
Total Mortality, n/total (%) [2]: (4.9%)
Odds ratio pravastatin vs placebo (TGFB1 hCV8708473, Any Report of Stroke Prior to or During CARE, 0 rare alleles): 1.35
Odds ratio pravastatin vs placebo (TGFB1 hCV8708473, Any Report of Stroke Prior to or During CARE, 1 rare allele): 0.68
Odds ratio pravastatin vs placebo (TGFB1 hCV8708473, Any Report of Stroke Prior to or During CARE, 2 rare alleles): 0.38
Odds ratio pravastatin vs placebo (TGFB1 hCV8708473, Cardiovascular Mortality, 0 rare alleles): 1.95
Odds ratio pravastatin vs placebo (TGFB1 hCV8708473, Cardiovascular Mortality, 1 rare allele): 0.30
Odds ratio pravastatin vs placebo (TGFB1 hCV8708473, Cardiovascular Mortality, 2 rare alleles): 0.48
Odds ratio pravastatin vs placebo (TGFB1 hCV8708473, Fatal Atherosclerotic Cardiovascular Disease, 0 rare alleles): 1.90
Odds ratio pravastatin vs placebo (TGFB1 hCV8708473, Fatal Atherosclerotic Cardiovascular Disease, 1 rare allele): 0.30
Odds ratio pravastatin vs placebo (TGFB1 hCV8708473, Fatal Atherosclerotic Cardiovascular Disease, 2 rare alleles): 0.48
Odds ratio pravastatin vs placebo (TGFB1 hCV8708473, Fatal Coronary Heart Disease, 0 rare alleles): 1.79
Odds ratio pravastatin vs placebo (TGFB1 hCV8708473, Fatal Coronary Heart Disease, 1 rare allele): 0.26
Odds ratio pravastatin vs placebo (TGFB1 hCV8708473, Fatal Coronary Heart Disease, 2 rare alleles): 0.49
Odds ratio pravastatin vs placebo (TGFB1 hCV8708473, Fatal/Non-fatal Atherosclerotic CV Disease, 0 rare alleles): 0.94
Odds ratio pravastatin vs placebo (TGFB1 hCV8708473, Fatal/Non-fatal Atherosclerotic CV Disease, 1 rare allele): 0.59
Odds ratio pravastatin vs placebo (TGFB1 hCV8708473, Fatal/Non-fatal Atherosclerotic CV Disease, 2 rare alleles): 0.81
Odds ratio pravastatin vs placebo (TGFB1 hCV8708473, Total Coronary Heart Disease Events, 0 rare alleles): 0.91
Odds ratio pravastatin vs placebo (TGFB1 hCV8708473, Total Coronary Heart Disease Events, 1 rare allele): 0.58
Odds ratio pravastatin vs placebo (TGFB1 hCV8708473, Total Coronary Heart Disease Events, 2 rare alleles): 1.00
Odds ratio pravastatin vs placebo (TGFB1 hCV8708473, Total Mortality, 0 rare alleles): 1.50
Odds ratio pravastatin vs placebo (TGFB1 hCV8708473, Total Mortality, 1 rare allele): 0.48
Odds ratio pravastatin vs placebo (TGFB1 hCV8708473, Total Mortality, 2 rare alleles): 0.65
Cardiovascular Mortality, n/total (%) [3]: (5.6%)
Fatal Atherosclerotic Cardiovascular Disease, n/total (%) [3]: (5.6%)
Fatal Coronary Heart Disease, n/total (%) [3]: (5.2%)
Total Coronary Heart Disease Events, n/total (%) [3]: (32.5%)
Total Mortality, n/total (%) [3]: (7.4%)
Cardiovascular Mortality, n/total (%) [4]: (2.5%)
Fatal Atherosclerotic Cardiovascular Disease, n/total (%) [4]: (2.4%)
Fatal Coronary Heart Disease, n/total (%) [4]: (2.0%)
Total Coronary Heart Disease Events, n/total (%) [4]: (25.0%)
Total Mortality, n/total (%) [4]: (4.6%)
Cardiovascular Mortality, n/total (%) [5]: (2.5%)
Fatal Atherosclerotic Cardiovascular Disease, n/total (%) [5]: (2.5%)
Fatal Coronary Heart Disease, n/total (%) [5]: (2.0%)
Total Coronary Heart Disease Events, n/total (%) [5]: (33.2%)
Total Mortality, n/total (%) [5]: (3.7%)
Fatal/Non-fatal Atherosclerotic CV Disease, n/total (%) [6]: (34.4%)
Hosp. for Cardiovascular Disease, n/total (%) [6]: (40.8%)
Total Cardiovascular Disease Events, n/total (%) [6]: (42.0%)
Total Coronary Heart Disease Events, n/total (%) [6]: (30.5%)
Fatal/Non-fatal Atherosclerotic CV Disease, n/total (%) [7]: (32.1%)
Hosp. for Cardiovascular Disease, n/total (%) [7]: (40.8%)
Total Cardiovascular Disease Events, n/total (%) [7]: (41.8%)
Total Coronary Heart Disease Events, n/total (%) [7]: (27.2%)
Fatal/Non-fatal Atherosclerotic CV Disease, n/total (%) [8]: (17.6%)
Hosp. for Cardiovascular Disease, n/total (%) [8]: (14.7%)
Total Cardiovascular Disease Events, n/total (%) [8]: (17.6%)
Total Coronary Heart Disease Events, n/total (%) [8]: (11.8%)
Odds ratio pravastatin vs placebo (TLR5 hCV15871020, Fatal/Non-fatal Atherosclerotic CV Disease, 0 rare alleles): 0.84
Odds ratio pravastatin vs placebo (TLR5 hCV15871020, Fatal/Non-fatal Atherosclerotic CV Disease, 1 rare allele): 0.68
Odds ratio pravastatin vs placebo (TLR5 hCV15871020, Fatal/Non-fatal Atherosclerotic CV Disease, 2 rare alleles): 0.14
Odds ratio pravastatin vs placebo (TLR5 hCV15871020, Hosp. for Cardiovascular Disease, 0 rare alleles): 0.81
Odds ratio pravastatin vs placebo (TLR5 hCV15871020, Hosp. for Cardiovascular Disease, 1 rare allele): 0.72
Odds ratio pravastatin vs placebo (TLR5 hCV15871020, Hosp. for Cardiovascular Disease, 2 rare alleles): 0.09
Odds ratio pravastatin vs placebo (TLR5 hCV15871020, Total Cardiovascular Disease Events, 0 rare alleles): 0.81
Odds ratio pravastatin vs placebo (TLR5 hCV15871020, Total Cardiovascular Disease Events, 1 rare allele): 0.70
Odds ratio pravastatin vs placebo (TLR5 hCV15871020, Total Cardiovascular Disease Events, 2 rare alleles): 0.10
Odds ratio pravastatin vs placebo (TLR5 hCV15871020, Total Coronary Heart Disease Events, 0 rare alleles): 0.86
Odds ratio pravastatin vs placebo (TLR5 hCV15871020, Total Coronary Heart Disease Events, 1 rare allele): 0.64
Odds ratio pravastatin vs placebo (TLR5 hCV15871020, Total Coronary Heart Disease Events, 2 rare alleles): 0.10
Cardiovascular Mortality, n/total (%) [9]: (3.5%)
Fatal Atherosclerotic Cardiovascular Disease, n/total (%) [9]: (3.5%)
Fatal Coronary Heart Disease, n/total (%) [9]: (3.3%)
Cardiovascular Mortality, n/total (%) [10]: (2.5%)
Fatal Atherosclerotic Cardiovascular Disease, n/total (%) [10]: (2.5%)
Fatal Coronary Heart Disease, n/total (%) [10]: (1.9%)
Cardiovascular Mortality, n/total (%) [11]: (6.9%)
Fatal Atherosclerotic Cardiovascular Disease, n/total (%) [11]: (6.5%)
Fatal Coronary Heart Disease, n/total (%) [11]: (6.2%)
Fatal/Non-fatal MI (def & prob), n/total (%) [12]: (10.5%)
Hosp. for Cardiovascular Disease, n/total (%) [12]: (40.9%)
Total Cardiovascular Disease Events, n/total (%) [12]: (42.4%)
Total Mortality, n/total (%) [12]: (6.0%)
Fatal/Non-fatal MI (def & prob), n/total (%) [13]: (7.7%)
Hosp. for Cardiovascular Disease, n/total (%) [13]: (38.9%)
Total Cardiovascular Disease Events, n/total (%) [13]: (39.4%)
Total Mortality, n/total (%) [13]: (4.7%)
Fatal/Non-fatal MI (def & prob), n/total (%) [14]: (7.1%)
Hosp. for Cardiovascular Disease, n/total (%) [14]: (35.7%)
Total Cardiovascular Disease Events, n/total (%) [14]: (35.7%)
Total Mortality, n/total (%) [14]: (3.6%)
Odds ratio pravastatin vs placebo (TNF hCV7514879, Fatal/Non-fatal MI (def & prob), 0 rare alleles): 0.80
Odds ratio pravastatin vs placebo (TNF hCV7514879, Fatal/Non-fatal MI (def & prob), 1 rare allele): 0.44
Odds ratio pravastatin vs placebo (TNF hCV7514879, Fatal/Non-fatal MI (def & prob), 2 rare alleles): 0.25
Odds ratio pravastatin vs placebo (TNF hCV7514879, Hosp. for Cardiovascular Disease, 0 rare alleles): 0.79
Odds ratio pravastatin vs placebo (TNF hCV7514879, Hosp. for Cardiovascular Disease, 1 rare allele): 0.76
Odds ratio pravastatin vs placebo (TNF hCV7514879, Hosp. for Cardiovascular Disease, 2 rare alleles): 0.20
Odds ratio pravastatin vs placebo (TNF hCV7514879, Total Cardiovascular Disease Events, 0 rare alleles): 0.79
Odds ratio pravastatin vs placebo (TNF hCV7514879, Total Cardiovascular Disease Events, 1 rare allele): 0.73
Odds ratio pravastatin vs placebo (TNF hCV7514879, Total Cardiovascular Disease Events, 2 rare alleles): 0.20
Odds ratio pravastatin vs placebo (TNF hCV7514879, Total Mortality, 0 rare alleles): 1.11
Odds ratio pravastatin vs placebo (TNF hCV7514879, Total Mortality, 1 rare allele): 0.57
Odds ratio pravastatin vs placebo (TNF hCV7514879, Total Mortality, 2 rare alleles): 0.19
Cardiovascular Mortality, n/total (%) [15]: (4.2%)
Fatal Atherosclerotic Cardiovascular Disease, n/total (%) [15]: (4.1%)
Cardiovascular Mortality, n/total (%) [16]: (2.4%)
Fatal Atherosclerotic Cardiovascular Disease, n/total (%) [16]: (2.4%)
Cardiovascular Mortality, n/total (%) [17]: (2.0%)
Fatal Atherosclerotic Cardiovascular Disease, n/total (%) [17]: (2.0%)
odds ratio, pravastatin group vs control group, adverse coronary event (hCV2741051, one rare allele): 0.43
odds ratio, stroke in the pravastatin treated group (hCV2741051, one rare allele): 0.21
odds ratio, pravastatin group vs control group, adverse coronary event (hCV2741051, two rare alleles): 0.26
odds ratio, stroke in the pravastatin treated group (hCV2741051, two rare alleles): 0.23
